Measurements from article PMC10572522, “A Designed Analog of an Antimicrobial Peptide, Crabrolin, Exhibits Enhanced Anti-Proliferative and In Vivo Antimicrobial Activity” (International Journal of Molecular Sciences, 2023).
Residues, ends and D or L forms follow the SMILES beside them.

Columns and labels:
[1] = test system: K. pneumoniae (ATCC 43816); assay: Antimicrobial susceptibility assay (MIC/MBC); type: cell-based, Klebsiella pneumoniae; conditions: for MIC: MHB, 37 °C, 20 h
Method: (§1) Six bacteria were tested in this experiment to detect the antimicrobial effects of crabrolin and its derivatives, including S. aureus (NCTC 10788), MRSA (NCTC 12493), E. coli (ATCC 8739), K. pneumoniae (ATCC 43816), E. faecium (NTCC-12697), and P. aeruginosa (ATCC 9027). The tested bacteria were cultured in Mueller Hinton broth medium (MHB) with norfloxacin (20 mg/L) as a positive control. All bacteria were incubated at 37 °C overnight and diluted to 5 × 10^5 CFU/mL before treating with the peptides. Stock solutions of 51,200 µM peptides were prepared in phosphate-buffered saline (PBS) and further diluted by a factor of two to 100 µM. Next, 1 µL of each peptide solution was mixed with 99 µL of bacterial subculture in a 96-well plate, and the plate was incubated at 37 °C for 20 h. After culturing, the absorbance of each well in the 96-well plate was analyzed at 550 nm using a Synergy HT plate reader (BioliseBioTek, Winooski, VT, USA). […] Starting with the MIC value, 10 µL of the solution from each well was dripped onto Mueller Hinton agar (MHA) plates. The plates were cultured at 37 °C for 20 h. After culturing, the lowest concentration with no colony growth was regarded as the MBC.

[2] = test system: P. aeruginosa (ATCC 9027); assay: Antimicrobial susceptibility assay (MIC/MBC); type: cell-based, Pseudomonas aeruginosa; conditions: for MIC: MHB, 37 °C, 20 h
Method: as §1

[3] = test system: horse erythrocytes; assay: Hemolysis assay; type: cell-based; conditions: for HC10 (10% hemolytic concentration) / HC50 (50% hemolytic concentration): erythrocytes, 37 °C, 2 h
Method: (§2) According to the procedures described in detail in a previous study, the debris and impurities of the erythrocytes were washed with PBS in advance to yield 2% of the erythrocyte suspension, and the drug concentration was diluted from 1024 µM to 2 µM with PBS [53]. The same amounts of the drug and the erythrocyte suspension were mixed and cultured at 37 °C for 2 h; 0.1% Triton X-100 (Sigma-Aldrich, St. Louis, MO, USA) was prepared as a positive control, and PBS was prepared as a negative control. After the incubation, the supernatant was transferred to a 96-well plate and then detected using a Synergy HT plate reader at 570 nm.

[4] = Hemolysis assay; type: cell-based, horse; conditions: horse, erythrocytes (2% suspension); for hemolysis at 2 h: at the peptide's maximum MIC, relative to Triton X-100, read-out: Hemolysis under the Maximum MIC
Method: as §2

[5] = test system: MRSA (NCTC 12493) biofilm; type: cell-based, methicillin-resistant Staphylococcus aureus; conditions: for MBIC: biofilm inhibitory rate more than 90%; for MBEC: eradication rate greater than 99.9%
Method: (§3) To measure the antibiofilm activity of crabrolin and its derivatives, four drug-resistant biofilm-forming strains, MRSA (NCTC 12493), K. pneumoniae (ATCC 43816), E. faecium (NTCC-12697), and P. aeruginosa (ATCC 9027), were used in this assay. Tryptic soy broth (TSB) (for the Gram-positive bacteria) and Luria–Bertani broth (LB) (for the Gram-negative bacteria) were used to culture the bacteria.
(§4) The mass of the biofilm in this assay was detected by the crystal violet staining method. First, 100 μL of 5 × 10^5 CFU/mL bacteria was incubated with 1 μL of different peptide solutions (ranging from 51200 μM to 100 μM) for 24 h at 37 °C with 200 rpm shaking. After the biofilm formation, 100 μL of PBS was used to rinse the biofilm twice. Next, 100 µL of methanol was added to fix the biofilm, and the biofilm was then dried. Thereafter, 100 μL of 0.1% crystal violet was added and left to stain for 15 min, and then the excess crystal violet was further rinsed by PBS. After the plate had air-dried, 30% glacial acetic acid was added to each well of the plate, and the plate was shaken for 15 min before the optical density (OD) value was measured at 595 nm using a Synergy HT plate reader. The MBIC value refers to the minimum concentration at which the biofilm inhibitory rate was more than 90%.
(§5) Different from measuring the MBIC value, to determine the MBEC value, 100 μL of the bacteria was first added to 96-well plates. After the biofilm was formed, the biofilm was rinsed with PBS twice to remove the planktonic cells, and then different concentrations of the drugs were added to the biofilm (the same as the MBIC assay). The mixture was incubated at 37 °C with shaking at 200 rpm. After 24 h of incubation, the mass of the biofilm was measured in the same way as the MBIC value, and the minimum concentration at which the eradication rate was greater than 99.9% was considered to be the MBEC value.

[6] = test system: human keratinocyte cell line HaCaT; assay: LDH cell cytotoxicity assay; type: cell-based; conditions: for LDH leakage: 25 μM, 24 h
Method: (§6) A Pierce LDH cytotoxicity assay kit (Thermo Scientific, Waltham, MA, USA) was applied for the LDH assay. An immortalized human microvascular endothelial cell line, HMEC-1, and a human keratinocyte cell line, HaCaT, were used in the LDH assay. A total of 8000 cells were placed in each well of the 96-well tissue culture plate with 100 µL of medium and incubated at 37 °C with 5% CO2 overnight. The cells were cultured with different drug concentrations ranging from 100 µM to 1µM for 24 h. […] of lysis buffer was prepared as the maximum LDH activity control. After incubating at 37 °C with 5% CO2 for 45 min, 50 µL of the sample was transferred into each well medium in a 96-well flat-bottom plate. Then, 50 µL of the reaction mixture was transferred to the wells and mixed. The 96-well plate was cultured for 30 min and protected from light at room temperature. Then, 50 µL of stop solution (supplied in the kit) was added to each well and mixed. The absorbance was detected at 490 nm and 680 nm.

[7] = test system: immortalized human microvascular endothelial cell line HMEC-1; assay: LDH cell cytotoxicity assay; type: cell-based
Method: as §6

[8] = test system: E. coli (ATCC 8739); assay: Antimicrobial susceptibility assay (MIC/MBC); type: cell-based, Escherichia coli; conditions: for MIC: MHB, 37 °C, 20 h
Method: as §1

[9] = test system: E. faecium (NTCC12697) biofilm; type: cell-based, Enterococcus faecium; conditions: for MBIC: biofilm inhibitory rate more than 90%; for MBEC: eradication rate greater than 99.9%
Method: as §3, §4, §5

[10] = test system: E. faecium (NTCC 12697); assay: Antimicrobial susceptibility assay (MIC/MBC); type: cell-based, Enterococcus faecium; conditions: for MIC: MHB, 37 °C, 20 h
Method: as §1

[11] = test system: S. aureus (NCTC 10788); assay: Antimicrobial susceptibility assay (MIC/MBC); type: cell-based, Staphylococcus aureus; conditions: for MIC: MHB, 37 °C, 20 h
Method: as §1

[12] = test system: P. aeruginosa (ATCC 9027) biofilm; type: cell-based, Pseudomonas aeruginosa; conditions: for MBIC: biofilm inhibitory rate more than 90%; for MBEC: eradication rate greater than 99.9%
Method: as §3, §4, §5

**Q.** With `CC[C@H](C)[C@H](NC(=O)[C@H](CC(C)C)NC(=O)[C@@H]1CCCN1C(=O)[C@H](CC(C)C)NC(=O)[C@@H](N)Cc1ccccc1)C(=O)N[C@@H](CC(C)C)C(=O)N[C@@H](CCCNC(=N)N)C(=O)N[C@@H](CCCCN)C(=O)N[C@H](C(=O)N[C@H](C(=O)N[C@H](C(=O)N[C@@H](C)C(=O)N[C@@H](CC(C)C)C(N)=O)[C@@H](C)O)C(C)C)[C@@H](C)CC` [Crabrolin, FLPLILRKIVTAL-NH2] (H-FLPLILRKIVTAL-NH2) as the compound, how does the MBC [1] read?
**A.** 128 µM

**Q.** What about the MIC [1] of the same compound?
**A.** 64 µM

**Q.** What about the MBC [2] of the same compound?
**A.** 256 µM

**Q.** And the MIC [2]?
**A.** 128 µM

**Q.** And the Hemolytic activity ([3]; 256 µM)?
**A.** 100%

**Q.** And the “HC10 (10% hemolytic concentration)” value [3]?
**A.** 34.575 µM

**Q.** And the “HC50 (50% hemolytic concentration)” value [3]?
**A.** 120.654 µM

**Q.** And the hemolysis at 2 h [4]?
**A.** 53.5%

**Q.** And the MBIC [5]?
**A.** 4 µM

**Q.** What about the MBEC [5] of the same compound?
**A.** 128 µM

**Q.** And the LDH leakage [6]?
**A.** ~20%

**Q.** And the “Cytotoxicity (LDH release)” value ([6]; 100 μM)?
**A.** showed cytotoxicity

**Q.** And the “Cytotoxicity (LDH release)” value ([7]; HMEC-1, 100 μM)?
**A.** showed cytotoxicity

**Q.** What about the MBC [8] of the same compound?
**A.** 128 µM

**Q.** And the MIC [8]?
**A.** 32 µM

**Q.** What about the MBIC [9] of the same compound?
**A.** 32 µM

**Q.** What about the MBEC [9] of the same compound?
**A.** > 512 µM

**Q.** What about the MBC [10] of the same compound?
**A.** 64 µM

**Q.** What about the MIC [10] of the same compound?
**A.** 16 µM

**Q.** And the MBC [11]?
**A.** 4 µM

**Q.** What about the MIC [11] of the same compound?
**A.** 2 µM

**Q.** And the MBIC [12]?
**A.** 128 µM

**Q.** And the MBEC [12]?
**A.** 512 µM

**Q.** With `CC[C@H](C)[C@H](NC(=O)[C@H](CCCNC(=N)N)NC(=O)[C@@H]1CCCN1C(=O)[C@H](CC(C)C)NC(=O)[C@@H](N)Cc1ccccc1)C(=O)N[C@@H](CC(C)C)C(=O)N[C@@H](CCCNC(=N)N)C(=O)N[C@@H](CCCCN)C(=O)N[C@H](C(=O)N[C@H](C(=O)N[C@@H](CCCNC(=N)N)C(=O)N[C@@H](C)C(=O)N[C@@H](CC(C)C)C(N)=O)C(C)C)[C@@H](C)CC` [Crabrolin-TR, FLPRILRKIVRAL-NH2] (H-FLPRILRKIVRAL-NH2) as the compound, how does the MBC [1] read?
**A.** 8 µM

**Q.** And the MIC [1]?
**A.** 8 µM

**Q.** And the MBC [2]?
**A.** 8 µM

**Q.** What about the MIC [2] of the same compound?
**A.** 4 µM

**Q.** What about the Hemolysis ([3]; 8 μM) of the same compound?
**A.** neither crabrolin-TR nor crabrolin21 caused hemolysis

**Q.** What about the “HC10 (10% hemolytic concentration)” value [3] of the same compound?
**A.** 36.041 µM

**Q.** What about the “HC50 (50% hemolytic concentration)” value [3] of the same compound?
**A.** 211.927 µM

**Q.** And the hemolysis at 2 h, 100 µM ([4]; 100 μM)?
**A.** ~50%

**Q.** And the hemolysis at 2 h [4]?
**A.** 3.76%

**Q.** What about the MBIC [5] of the same compound?
**A.** 2 µM

**Q.** What about the MBEC [5] of the same compound?
**A.** 64 µM

**Q.** And the LDH leakage [6]?
**A.** ~20%

**Q.** What about the “Cytotoxicity (LDH release)” value ([7]; HMEC-1, 25 μM) of the same compound?
**A.** cytotoxic

**Q.** And the MBC [8]?
**A.** 4 µM

**Q.** And the MIC [8]?
**A.** 2 µM

**Q.** And the MBIC [9]?
**A.** 16 µM

**Q.** And the MBEC [9]?
**A.** > 512 µM

**Q.** And the MBC [10]?
**A.** 8 µM

**Q.** What about the MIC [10] of the same compound?
**A.** 4 µM

**Q.** What about the MBC [11] of the same compound?
**A.** 2 µM

**Q.** What about the MIC [11] of the same compound?
**A.** 1 µM

**Q.** And the MBIC [12]?
**A.** 8 µM

**Q.** What about the MBEC [12] of the same compound?
**A.** 256 µM
